The source of these data is US5670503A, “Pyrazole derivatives” (Fujisawa Pharmaceutical Co., Ltd., priority 1993, dated 1997).

The test system of test [1] is production of Interleukin-1 (IL-1). The test can be described thus: Inhibitory activity on the production of Interleukin-1 (IL-1) in LPS-stimulated human peripheral blood monocyte. It is filed as cell-based. To be noted: 48 h; purified human peripheral blood monocyte, LPS 1 μg/10^4 cells, 2 days at 37° C., IL-1β ELISA of supernatant; read-out: IC50 (inhibition of IL-1 production). Here is the method:
Purified human peripheral blood monocyte were stimulated with bacterial lipopolysaccharide (1 μg/10^4 cells) in the absence or presence of appropriately diluted test compound for 2 days at 37° C. in a humidified 5% CO2 atmosphere. Culture supernatants were tested for IL-1 ELISA assay.
Test compound was dissolved in absolute DMSO (dimethyl sulfoxide) to achieve 10 mM stock solutions and was subsequently diluted in serum free RPMI1640.
IL-1 levels were quantified by a commercial ELISA kit (Ohtsuka assay, Japan) using a sandwich technique. The sensitivity levels for the detection of IL-1β were 20 pg/ml.
(§1) The inhibitory concentration that caused a 50% inhibition (IC50) was calculated by regression analysis of the dose-response data.
A general note: ELISA stands for enzyme-linked immunosorbent assay.

Test [2] deals with production of tumor necrosis factor (TNF). Kind of test: Inhibitory activity on the production of tumor necrosis factor (TNF) in LPS-stimulated human peripheral blood monocyte. To be noted: 48 h; purified human peripheral blood monocyte, LPS 1 μg/10^4 cells, 2 days at 37° C., TNF ELISA of supernatant; read-out: IC50 (inhibition of TNF production). It is filed as cell-based. Here is the method: Purified human peripheral blood monocyte were stimulated with bacterial lipopolysaccharide (1 μg/10^4 cells) in the absence or presence of appropriately diluted test compound for 2 days at 37° C. in a humidified 5% CO2 atmosphere. Culture supernatants were tested for TNF ELISA assay.
TNF levels were quantified by a commercial ELISA kit (Endogen, Inc. USA) using a sandwich technique. The sensitivity levels for the detection of TNF were 12 pg/ml.
as §1

Usually IC50 stands for the point on the concentration scale where inhibition reaches its midpoint. On to `CC(C)(C)CN1CCn2nc(-c3ccc(F)cc3)c(-c3ccncc3)c2N1` [Example 16-(5), 7-(4-Fluorophenyl)-2-neopentyl-8-(pyridin-4-yl)-1,2,3,4-tetrahydropyrazolo[5,1-c][1,2,4]triazine], for which the values for the half-inhibitory concentration (IC50) in test [1] and in test [2] were 92 nM and 91 nM, respectively.

Take `Fc1ccc(-c2nn3c(c2-c2ccncc2)NN(C2CCCCC2)CC3)cc1` [Example 18-(2), 2-Cyclohexyl-7-(4-Fluorophenyl)-8-(pyridin-4-yl)-1,2,3,4-tetrahydropyrazolo[5,1-c][1,2,4]triazine]: the IC50 in test [1] is 88 nM; in test [2] it was 110 nM.
